Laboratory results as given in patent publication US20160067301A1, “ANTAGONISM OF ABCG4, LYN KINASE, AND C-CBL E3 LIGASE TO INCREASE PLATELET COUNT AS THERAPY FOR THROMBOCYTOPENIA” (The Trustees of Columbia University in the City of New York, priority 2013, published 2016).
Where a SMILES comes first, the peptide text is derived from it. The star is where a group is joined. Cbz = O=C(OCc1ccccc1)*

Columns and labels:
[1] = tested on: WT and Abcg4−/− mice; assay: Platelet count after a single TPO injection in WT and Abcg4−/− mice; format: in vivo, mouse; settings: for increase in the number of platelets: single dose TPO 50 μg per kg body weight (FIG. 2i)
Source text: The Institutional Animal Care and Use Committee of Columbia University approved all the mouse studies. Abcg4−/−, Abcg1−/− Abca1−/− and Abcg1−/− mice in a C57BL/6J background were created as described and used in this study. Abcg4−/− mice were backcrossed onto C57BL/6J mice for more than ten generations. WT (C57BL/6J) and Ldlr−/− (B6.129S7-Ld1rtm1Her) mice were obtained from The Jackson Laboratory (Bar Harbor, Me.). For bone marrow transplantation studies, bone marrow from WT, Abcg4−/−, Abcg1−/− Abca1−/− or Abcg1−/− mice was transplanted into WT or Ldlr−/− recipient mice as described. For atherosclerosis studies, bone marrow-transplanted recipient mice were fed a Western diet (TD88137, Harlan Teklad) for the indicated period of time. Bone marrow-specific retro-viral expression of murine c-MPL^W515L was established as described44 using WT C57BL/6J mice as the recipient and WT C57BL/6J or Abcg4−/− mice as the bone marrow donor. Where indicated, vehicle (saline), rHDL or TPO (R&D Systems) was injected at the indicted dose into the mice through the tail vein. rHDL (CSL-111) was provided by CSL Behring AG, Bern, Switzerland; CSL-111 is composed of human apoA-I and phosphatidylcholine from soy bean in a ratio of 1:150. […]
Complete blood counts were quantified using whole blood collected from tail bleeding. A FORCYTE Veterinary Hematology Analyzer (Oxford Science, Inc.) was used for the analysis.

[2] = tested on: cell surface c-MPL on MkPs; assay: Cell surface c-MPL expression on MkPs by flow cytometry; format: cell-based, mouse; settings: for cell surface c-MPL levels in MkPs: bone marrow progenitor cells from WT or Abcg4−/− mice, TPO 10 ng/ml, 2 hrs, Tolimidone 10 μM, CRIN-1 1 μM (FIG. 18)
Protocol: After harvesting bone marrow progenitor cells, RBCs were lysed, and the cells were resuspended in FACS buffer, Bone marrow cells were stained for MkPs as stated above, and c-MPL or isotype control antibodies were included. Cells were then washed and stained with a fluorescently conjugated secondary rabbit-specific antibody to detect the antibody to c-MPL for a further 30 min on ice. Following this, the cells were washed, resuspended in FACS buffer and run on an LSRII flow cytometer. MEPs were identified as Lin^−c-Kit^+CD16/CD32^loCD34^loCD41^−, and MkPs were identified as Lin^−c-Kit^+CD16/CD32^loCD34^loCD41^+.

[3] = tested on: c-CBL phosphorylation in MkPs; assay: c-CBL tyrosine phosphorylation in MkPs in response to TPO (phospho-flow cytometry); format: cell-based, mouse; settings: for c-CBL phosphorylation: 5 min TPO, CD 3 mM or CD-chol 30 min, rHDL 20 μg apoA-I ml-1 2 h, SU6656 10 μg ml-1 2 h
Protocol: Bone marrow progenitor cells were stimulated with TPO at the indicated concentration for the specified period of time at 37° C. and then immediately diluted with ice-cold buffer and placed on ice to prevent further changes in phosphorylation. Cells were then centrifuged at 800 g for 2 min, and the pellet was resuspended in BD fix buffer (BD Biosciences) for 10 min on ice. The cells were washed with BD flow cytometry staining buffer, centrifuged, and then resuspended in BD cytofix/perm buffer III for 20 min. After this, the cells were washed and resuspended in BD staining buffer and incubated with lineage (Sca1, CD127, CD45R, CD19, CD11b, CD3e, TER-119, CD2, CD8, CD4 and Ly-6G, all FITC; eBioscience) and progenitor cell markers (c-Kit, CD16/CD32 (FcγRII/III), CD34, CD41 and antibody to p-c-CBL (Tyr700 human, Tyr698 mouse; BD Biosciences)) or an isotype control for 30 min on ice. The cells were then washed, resuspended in FACS buffer and run on an LSRII. The amount of phosphorylated c-Cbl was normalized against that of isotype control staining.

[4] = tested on: MkPs; assay: MkP proliferation (EdU incorporation, flow cytometry); format: cell-based, mouse; settings: 16 h with TPO
[5] = tested on: bone marrow HSPCs; assay: MK-CFU megakaryocyte colony-forming assay; format: cell-based, mouse; settings: ABCG4-deficient cells (FIG. 13c)
Protocol: Primary bone marrow HSPCs obtained by FACS were plated in methylcellulose-based medium (5,000 cells per assay) containing TPO (50 ng interleukin-6 (IL-6) (20 ng ml^−1) and IL-3 (10 ng ml^−1) and incubated for 8 d according to the manufacturer's protocol (Megacult-C, Stemcell Technologies). Cultures were fixed, and megakaryocyte colonies were visualized by staining for acetylcholinesterase activity. Nuclei were counterstained with Harris' hematoxylin. Colonies containing more than three megakaryocytes were scored as MK-CFUs.

[6] = WT MkPs, with TPO 30 ng ml-1, CD 3 mM or CD-chol 30 min, rHDL 20 μg ml-1, MG132 10 μM 2 h, SU6656 10 μg ml-1 2 h
[7] = Abcg4−/− MkPs, with TPO 30 ng ml-1, CD 3 mM or CD-chol 30 min, rHDL 20 μg ml-1, SU6656 10 μg ml-1 2 h

Molecule: TPO: Thrombopoietin (R&D Systems), growth factor regulating megakaryocyte and platelet development
- increase of platelet count after single injection of TPO, compared with wild type ([1]; Abcg4−/− mice (FIG. 17)): much more pronounced
- increase in the number of platelets ([1]; Abcg4−/− mice): 2.1 fold
- increase in the number of platelets ([1]; WT mice): 1.4 fold
- platelet count after single injection of TPO ([1]; wild type mice (FIG. 17)): induced increase of platelet count

Molecule: CC(C)C[C@@H](C=O)NC(=O)[C@H](CC(C)C)NC(=O)[C@H](CC(C)C)NC(=O)OCc1ccccc1 [MG132] (Cbz-Leu-Leu-Leu-aldehyde)
- cell surface c-MPL expression [2, 6]: increased c-MPL expression to a level similar to that in Abcg4−/− cells

Molecule: methyl-β-cyclodextrin
- cell surface c-MPL expression [2, 7]: significantly reduced to levels similar to those in cyclodextrin-treated WT MkPs
- c-CBL phosphorylation ([3]; Abcg4−/− MkPs): increased c-CBL phosphorylation
- c-CBL phosphorylation ([3]; WT MkPs): increased c-CBL phosphorylation
- MkP proliferation (EdU incorporation) ([4]; Abcg4−/− MkPs, CD 3 mM or CD-chol 30 min pretreatment, rHDL 20 μg ml-1 16 h): significantly reduced to levels similar to those in cyclodextrin-treated WT MkPs
- MkP proliferation (EdU incorporation) ([4]; Lyn−/− MkPs, cholesterol loading or depletion treatments): unresponsive
- MkP proliferation (EdU incorporation) ([4]; WT MkPs, CD 3 mM or CD-chol 30 min pretreatment, rHDL 20 μg ml-1 16 h): decreased the proliferation
- number of megakaryocyte colonies [5]: reversed the increase in the number of magakaryecyte colonies

Molecule: Tolimidone
- cell surface c-MPL expression ([2]; Abcg4−/− MkPs from hypercholesterolemic (WTD-fed) Ldlr−/− recipient mice, 10 μM, TPO, 2 h): reduced cell surface c-MPL expression
- cell surface expression of c-MPL ([2]; Abcg4−/− MkPs from normocholesterolemic mice (FIG. 14)): completely reversed the increased cell surface expression of c-MPL
- cell surface c-MPL expression ([2]; WT MkPs from hypercholesterolemic (WTD-fed) Ldlr−/− recipient mice, 10 μM, TPO, 2 h): reduced cell surface c-MPL expression
- cell surface c-MPL levels in MkPs [2]: decreases

Molecule: CN(C)S(=O)(=O)c1ccc2c(c1)/C(=C/c1cc3c([nH]1)CCCC3)C(=O)N2 [SU6656]
- cell surface c-MPL expression [2, 7]: increased cell surface expression of c-MPL
- cell surface c-MPL expression [2, 6]: increased cell surface expression of c-MPL
- c-CBL phosphorylation ([3]; Abcg4−/− MkPs): markedly decreased c-CBL phosphorylation
- difference in response to TPO between WT and Abcg4−/− MkPs (c-CBL phosphorylation, c-MPL expression) ([3]; SU6656 10 μg ml-1 for 2 h): abolished the difference in response to TPO
- c-CBL phosphorylation ([3]; WT MkPs): markedly decreased c-CBL phosphorylation

Molecule: COc1c2c(cc3c1C(CN)N(C)CC3)OCO2 (stereo not shown) [CRIN-1]
- cell surface c-MPL levels in MkPs [2]: increases
